From patent US20170045513A1, “METHODS OF DIAGNOSING CELIAC DISEASE USING IP-10” (ImmusanT, Inc., priority 2014, published 2017)
Non-standard residues stand in square brackets, D forms with d. pGlu = O=C1CC[C@@H](C(=O)O)N1

What was measured:
Type in all cases: cell-based, human
[1] = test system: gluten-reactive T cells; assay: Overnight IFNγ ELISpot assay with fresh PBMC; details: for Percent of maximal response to individual gluten peptides, ELISp: after oral gluten challenge; for IFNγ ELISpot % max Mean: n = 5, blood after oral gluten challenge, individual peptides 5 μM (Peptide 2* of P14, Pepscan: 10 μg/mL (5.45 μM))
Description: HLA-DQ2.5-positive celiac disease subjects on gluten-free diet were used in this study. Blood was collected immediately before and 6 days after commencing 3-day oral gluten challenge. Whole blood or PBMCs were incubated with pools or single peptides derived from gluten or recall antigens. IFNγ and IP-10 levels were measured in plasma from the whole blood that was incubated in 96-well plates with peptides or peptide pools. Plasma cytokine/chemokine levels were measured by MAGPIX® multiplex bead assay (IFNγ and IP-10) or by ELISA (IFNγ and IP-10), and PBMC separated from the same blood sample were incubated in overnight IFNγ ELISpot assays.
Overnight IFNγ ELISpot assays (Human IFN-γ ELISpotPRO kit, transparent, ALP; Mabtech AB, #3420-2APT-10) were performed using PBMC freshly separated from heparinized blood diluted 1:1 in PBS with 2% fetal bovine serum (Stemcell Technologies #07905; Vancouver, BC, V5Z 1B3, Canada) overlaid on density gradient medium (Ficoll-Paque™ PLUS; GE Healthcare Lice Sciences #:17-1440-02) in SepMate™-50 tubes (Stemcell Technologies #15460). PBMC (8 million/mL) were resuspended in serum-free medium with gentamicin and phenol red (X-VIVO™15; Lonza, Walkersville Mass. 21793). PBMC (0.4 million/50 pt/well) and incubated with 50 μL 80% X-vivo15, 0.2% DMSO and 20% PBS in three triplicate wells (“medium only”), or with 50 μL PHA-L 20 μg/ml or peptide at 2× final concentration in 80% X-vivo15, 0.2% DMSO and 20% PBS. Peptide solutions to be added to individual ELISpot wells were prepared in 96-well U-bottom plates (60 pt/well) that were then sealed with adhesive ELISA plate cover slips before replacing the plastic lid and being frozen at −80° C. 96-well plates containing peptide solutions were thawed at room temperature for 10 min while being centrifuged at 300 g immediately prior to being added to ELISpot wells. Peptide pools and mitogen were assessed in triplicate wells, and individual peptides were assessed in duplicate wells. X-VIVO™15 (50 μL) was incubated with 80% X-vivo15, 0.2% DMSO and 20% PBS (50 μL) in triplicate wells (“no PBMC” control). A Zeiss automated ELISpot counter was used to determine spot forming units (SFU) per well (Zellnet Inc., Fort Lee, N J 07024). Laboratory staff were unaware of the arrangement of peptide solutions in ELISpot wells during assay setup and plate counting.

[2] = test system: gluten-reactive T cells; assay: 96-well plate whole blood cytokine release, IFNγ by MAGPIX multiplex bead assay; details: for Percent of maximal response to individual gluten peptides, IFNg: after oral gluten challenge; for IFNγ WB MAGPIX % max Mean: n = 8, blood after oral gluten challenge, individual peptides 5 μM (Peptide 2* of P14, Pepscan: 10 μg/mL (5.45 μM))
[3] = test system: gluten-reactive T cells; assay: Cytokine release assays taken together (IFNγ ELISpot, whole blood IFNγ and IP-10, in-tube IFNγ ELISA)
Description: Gluten peptide solutions for addition to whole blood were arranged according to standardized templates in sterile 96-well U-bottom plates (30 μL/well). Plates were sealed with adhesive ELISA plate cover slips before the plastic lid was replaced and being frozen at −80° C. Whole blood assay (WBA) “medium” (1% DMSO in 90% PBS and 9% normal saline), mitogen (PHA-L, Sigma-Aldrich #L2769; St Louis Mo.) 100 μg/ml in WBA medium, and CEF diluted to 10 μg/ml in PBS with a final concentration of 1% DMSO were frozen separately in sterile cryovials. 96-well plates and cryovials with frozen incubation solutions were shipped on dry ice to the clinical site where blood was collected and incubations performed. Solutions were thawed at room temperature for 10 min just before being added to whole blood. 96-well plates were thawed while being centrifuged at 300 g to avoid surface condensation. A multi-channel pipette was used to efficiently transfer 25 μL of peptide solutions from the original 96-well plate to corresponding wells in a fresh sterile 96-well U-bottom plate. Once incubation solutions had been added, 225 μL of whole blood was added to each well and the plate transferred to incubate for 24 h at 37° C. 5% CO2. […] Individual peptides were incubated at a final assay concentration of 51.1M. Final concentrations of individual peptides assessed in P3 was 0.05-50 μg/mL, and in P14 and P13 pools 0.025-25 μM. The P71 pool was tested at between 0.005-10 pg/mL, the highest tested concentration being the maximal possible not exceeding 0.1% DMSO. Peptide pools, mitogen, and medium only were assessed in triplicate wells, and on Day-6 individual peptides were assessed in duplicate wells. Incubations were terminated after 24 h, and 96-well plates centrifuged at 300 g for 10 min. A total of approximately 90 to 120 μL of plasma was removed from each well taking care to avoid red cell contamination, and transferred into corresponding wells of two further 96-well plates (one with 30 μL/well and the residual in the second plate). Plasmas were frozen at −80° C. and later shipped on dry ice to the central lab where IP-10 and IFNγ multiplex bead assays were performed according to manufacturer's instructions using 25 μL plasma per well (Milliplex® MAP Human Cytokine/Chemokine Magnetic Bead Panel #HCYTOMAG-60k-02; EMD Millipore Corp., Billerica, Mass. 01821) and analysed with the Luminex® MAGPIX® System xPONENT® software (Luminex Corporation, Austin Tex. 78727). Plasma cytokine levels for each assay condition were expressed as the mean analyte concentration of each of the three replicate incubations. Laboratory staff were unaware of the arrangement of peptide solutions incubated with during assay setup and plate counting.
Aliquots of PBS, P3 peptides diluted in PBS (final concentration in blood 3× 50 or CEF to a final concentration 1 μg/mL were prepared in sterile cryovials (0.11 mL/vial) and stored frozen (−80° C.) until immediately before use. P3, CEF and two PBS aliquots were drawn up in separate sterile 0.3 mL insulin syringes with attached 29G×½″ needle (Terumo, SS*30M2913; Elkton Md. 21921). P3, CEF and one PBS aliquot was injected through the stoppers of three separate QuantiFERON® NIL tubes already containing 1 mL blood, and one aliquot of PBS was injected into a QuantiFERON® MITOGEN tube already containing 1 mL blood. All four tubes containing blood and incubation solution were gently inverted ten-times and transferred to incubate at 37° C. 5% CO2. After for 24 h, tubes were centrifuged 300 g 10 min. Plasma was separated and equal volumes placed in two 1.5 mL cryovials. Frozen plasmas were transferred to the central lab where IFNγ levels were measured in triplicate 50 μL samples by ELISA (MABtech Human IFN-γ ELISA development kit HRP, 3420-1H-6; capture mAb 1-D1K). […]

[4] = blood collected after oral gluten challenge

Substance	Percent of maximal response to individual gluten peptides, ELISp ([1]; Subject 3, Max. 18 SFU)	Percent of maximal response to individual gluten peptides, ELISp ([1]; Subject 4, Max. 36 SFU)	Percent of maximal response to individual gluten peptides, ELISp ([1]; Subject 6, Max. 16 SFU)	Percent of maximal response to individual gluten peptides, ELISp ([1]; Subject 8, Max. 17 SFU)	Percent of maximal response to individual gluten peptides, ELISp ([1]; Subject 10, Max. 11 SFU)	IFNγ ELISpot % max Mean [1] [% max]	Percent of maximal response to individual gluten peptides, IFNg ([2]; Subject 2, Max. 116 pg/mL)	Percent of maximal response to individual gluten peptides, IFNg ([2]; Subject 3, Max. 799 pg/mL)	Percent of maximal response to individual gluten peptides, IFNg ([2]; Subject 4, Max. 136 pg/mL)	Percent of maximal response to individual gluten peptides, IFNg ([2]; Subject 6, Max. 72 pg/mL)	Percent of maximal response to individual gluten peptides, IFNg ([2]; Subject 7, Max. 17 pg/mL)	Percent of maximal response to individual gluten peptides, IFNg ([2]; Subject 8, Max. 47 pg/mL)	Percent of maximal response to individual gluten peptides, IFNg ([2]; Subject 9, Max. 67 pg/mL)	Percent of maximal response to individual gluten peptides, IFNg ([2]; Subject 10, Max. 229 pg/mL)	IFNγ WB MAGPIX % max Mean [2] [% max]	activity relative to Peptide 14 in the cytokine release assays [3, 4]	rank of activity among individual gluten peptides [3, 4]	cytokine release / immunogenicity of individual peptide ([3]; HLA-DQ2.5+ celiac disease subjects after gluten challenge)
(pE)LQPFPQPELPYPQPQ-amide ([pGlu]LQPFPQPELPYPQPQ-NH2; SMILES CC(C)C[C@H](NC(=O)[C@@H]1CCC(=O)N1)C(=O)N[C@@H](CCC(N)=O)C(=O)N1CCC[C@H]1C(=O)N[C@@H](Cc1ccccc1)C(=O)N1CCC[C@H]1C(=O)N[C@@H](CCC(N)=O)C(=O)N1CCC[C@H]1C(=O)N[C@@H](CCC(=O)O)C(=O)N[C@@H](CC(C)C)C(=O)N1CCC[C@H]1C(=O)N[C@@H](Cc1ccc(O)cc1)C(=O)N1CCC[C@H]1C(=O)N[C@@H](CCC(N)=O)C(=O)N1CCC[C@H]1C(=O)N[C@@H](CCC(N)=O)C(N)=O) [Peptide 1]	11 % of max	22 % of max	25 % of max	0 % of max	9 % of max	13	100 % of max	14 % of max	26 % of max	25 % of max	43 % of max	6 % of max	43 % of max	7 % of max	33	no more than two-thirds as active as Peptide 14	the most active of this group of related peptides	
(pE)PEQPEQPFPEQPQQ-amide ([pGlu]PEQPEQPFPEQPQQ-NH2; SMILES NC(=O)CC[C@H](NC(=O)[C@H](CCC(N)=O)NC(=O)[C@@H]1CCCN1C(=O)[C@H](CCC(N)=O)NC(=O)[C@H](CCC(=O)O)NC(=O)[C@@H]1CCCN1C(=O)[C@H](Cc1ccccc1)NC(=O)[C@@H]1CCCN1C(=O)[C@H](CCC(N)=O)NC(=O)[C@H](CCC(=O)O)NC(=O)[C@@H]1CCCN1C(=O)[C@H](CCC(N)=O)NC(=O)[C@H](CCC(=O)O)NC(=O)[C@@H]1CCCN1C(=O)[C@@H]1CCC(=O)N1)C(N)=O) [Peptide 11]	0 % of max	3 % of max	6 % of max	6 % of max	0 % of max	3	0 % of max	0 % of max	0 % of max	0 % of max	0 % of max	0 % of max	0 % of max	0 % of max	0			weak or not distinguishable from medium alone
(pE)PEQPFPEQPIPEQPQPYP-amide ([pGlu]PEQPFPEQPIPEQPQPYP-NH2; SMILES CC[C@H](C)[C@H](NC(=O)[C@@H]1CCCN1C(=O)[C@H](CCC(N)=O)NC(=O)[C@H](CCC(=O)O)NC(=O)[C@@H]1CCCN1C(=O)[C@H](Cc1ccccc1)NC(=O)[C@@H]1CCCN1C(=O)[C@H](CCC(N)=O)NC(=O)[C@H](CCC(=O)O)NC(=O)[C@@H]1CCCN1C(=O)[C@@H]1CCC(=O)N1)C(=O)N1CCC[C@H]1C(=O)N[C@@H](CCC(=O)O)C(=O)N[C@@H](CCC(N)=O)C(=O)N1CCC[C@H]1C(=O)N[C@@H](CCC(N)=O)C(=O)N1CCC[C@H]1C(=O)N[C@@H](Cc1ccc(O)cc1)C(=O)N1CCC[C@H]1C(N)=O) [Peptide 14]	100 % of max	100 % of max	100 % of max	100 % of max	100 % of max	100	53 % of max	100 % of max	100 % of max	100 % of max	99 % of max	100 % of max	98 % of max	100 % of max	94		most active	
